Data as given in publication PMC9180926, “Discovery of Novel 3-Hydroxyquinazoline-2,4(1H,3H)-Dione Derivatives: A Series of Metal Ion Chelators with Potent Anti-HCV Activities” (International Journal of Molecular Sciences, 2022).

What was measured:
[1] = tested on: HCV 1b replicon cells (Huh-7.5.1); experiment: Anti-HCV assay, HCV 1b replicon cells with luciferase reporter; format: cell-based, hepatitis C virus (HCV) subtype 1b; settings: HCV 1b replicon cells; for inhibition at 10 µM / inhibition at 25 µM: Huh-7.5.1, 72 h, 72 h; for inhibition at 10 µM: inhibitory rate at 10 μM, read-out: HCV Inhibition 10 μM; for inhibition at 25 µM: inhibitory rate at 25 μM, read-out: HCV Inhibition 25 μM; for EC50: mean ± SD
Method: (§1) The HCV replicons were validated as convenient and effective models for testing the anti-HCV activity. Since HCV subtype 1b is one of the major subtypes worldwide, especially in China, the replicon model from the Huh-7.5.1 cell line integrating HCV 1b genome encoding the nonstructural proteins was chosen to evaluate the anti-HCV activities of 3-hydroxyquinazoline-2,4(1H,3H)-diones. The inhibitory rates of the compounds on HCV replicon cells were determined at concentrations of 25 μM and 10 μM, respectively. The broad-spectrum antiviral drug ribavirin (RBV) and the NS5B nucleoside inhibitor 2′-C-methyladenosine (2CMA) were selected as positive controls. The cytotoxicity of these compounds on replicon cells was determined using the cell counting kit-8 (CCK-8) assay.
HCV 1b replicon cells (Huh-7.5.1) containing luciferase reporter gene were kindly provided by Prof. Zhenghong Yuan (Key Laboratory of Medical Molecular Virology, Fudan University, Shanghai, China). The replicon cells were plated at 1.5 × 10^4 cells per well in a 48-well plate (Corning Inc., New York, NY, USA) at 5% CO2/37 °C. The culture medium was Dulbecco’s Modified Eagle Medium (DMEM, pH 7.3, Shanghai XP Biomed Ltd., Shanghai, China) containing 10% fetal bovine serum (Shanghai XP Biomed Ltd., Shanghai, China), 10^5 U/L penicillin, 0.1 g/L streptomycin, and 0.5 μg/mL blasticidin. After 12 h, the culture medium in each well was replaced with 300 μL of pre-prepared fresh culture medium containing test compound (dissolved in DMSO with specific concentration) or blank DMSO. The final concentration of DMSO in the culture medium in the plate was 0.1%. Each group was tested at least twice in parallel. Ribavirin and 2CMA were used as the positive controls. After incubating the drug-added plate at 5% CO2/37 °C for 72 h, the medium was removed, and each well was washed with 300 μL of phosphate buffer solution (PBS, Shanghai XP Biomed Ltd., Shanghai, China). The cells in each well were then lysed with 50 μL of 1× lysis buffer (E2820, Promega, Madison, WI, USA). Subsequently, 50 μL of 1× luciferase assay substrate (E2820, Promega, Madison, WI, USA) was mixed with 20 μL of the harvested cell lysates.
The inhibitory rates under at least six different concentration gradients were imported into GraphPad Prism 7.0 software to calculate the anti-HCV EC50 values of the compounds using the nonlinear fitting method.

[2] = tested on: HCV 1b replicon cells (Huh-7.5.1); experiment: as above; format: cell-based, hepatitis C virus (HCV) subtype 1b; settings: Hepatitis C virus, Huh-7.5.1, 72 h, inhibitory rate at 5 μM
[3] = Cytotoxicity assay (CCK-8) on replicon cells; format: cell-based; settings: human, HCV 1b replicon cells (Huh-7.5.1); 50% cytotoxic concentration; CCK-8, HCV 1b replicon cells, 72 h
Method: as §1
The HCV 1b replicon cells were incubated and treated with test compounds or blank DMSO in a 48-well plate using the same materials and methods as described in the experimental procedure of anti-HCV assay. The final concentration of DMSO in each well was 0.1%. After 72 h of drug treatment, the culture medium in the well plate was removed, and cells in each well were washed with 300 μL of PBS. A total of 300 μL of pre-prepared fresh culture medium containing 30 μL CCK-8 reagent (Donjindo, Kumamoto, Japan) was added to each well, and the plate was incubated at 5% CO2/37 °C for 2 h. The OD (optical density) value of each well at 450 nm was measured using a multi-function microplate reader (SpectraMax M5, Molecular Devices, San Jose, CA, USA). The death ratio of each well was calculated using the following equation, in which ODcompound or ODblank represents the measured OD value of the compound group or the blank control (DMSO), respectively:death ratio = (1−ODcompound/ODblank) × 100%(2)
The cell death data under at least six different concentration gradients were imported into GraphPad Prism 7.0.0 software (GraphPad Software Inc., San Diego, CA, USA), and the CC50 (50% cytotoxic concentration) values were calculated using the nonlinear fitting method.

[4] = Hepatitis C virus, Huh-7.5.1, 50% effective concentration

Compound	inhibition at 10 µM ([1]; Hepatitis C virus) [%]	inhibition at 25 µM ([1]; Hepatitis C virus) [%]	inhibition at 5 µM [2] [%]	EC50 [1, 4] [µM]	CC50 at 72 h [3] [µM]	EC50 ([1]; 50% effective concentration) [µM]
O=c1[nH]c2cc(-c3cccnc3)ccc2c(=O)n1O [21r, 3-Hydroxy-7-(pyridin-3-yl)quinazoline-2,4(1H,3H)-dione]	26.9	65.4	-5.5	–	–	–
O=c1[nH]c2cc(-c3ccc(F)cc3)ccc2c(=O)n1O [21f, 7-(4-Fluorophenyl)-3-hydroxyquinazoline-2,4(1H,3H)-dione]	78.8	–	73.4	3.1 ± 0.1	4.1 ± 0.6	–
Cn1c(=O)n(O)c(=O)c2ccc(-c3ccccc3)cc21 [23b, 3-Hydroxy-1-methyl-7-phenylquinazoline-2,4(1H,3H)-dione]	79.5	–	39.2	3.9 ± 1	6.7 ± 0.3	–
O=c1[nH]c2ccc(-c3cccc([N+](=O)[O-])c3)cc2c(=O)n1O [21d, 3-Hydroxy-6-(3-nitrophenyl)quinazoline-2,4(1H,3H)-dione]	78.5	–	71.1	4.8 ± 0.8	6.6 ± 1.5	–
Nc1cccc(-c2ccc3c(=O)n(O)c(=O)[nH]c3c2)c1 [21j, 7-(3-Aminophenyl)-3-hydroxyquinazoline-2,4(1H,3H)-dione]	51	–	16.1	7.3 ± 1.3	13 ± 0.8	–
O=c1[nH]c2c(-c3ccccc3)cccc2c(=O)n1O [21u, 3-Hydroxy-8-phenylquinazoline-2,4(1H,3H)-dione]	27.5	40.9	1.8	–	–	–
O=c1[nH]c2ccc(-c3ccc(F)cc3)cc2c(=O)n1O [21b, 6-(4-Fluorophenyl)-3-hydroxyquinazoline-2,4(1H,3H)-dione]	79.7	–	47.7	6.1 ± 0.1	8 ± 2.2	–
O=c1[nH]c2cc(-c3ccco3)ccc2c(=O)n1O [21s, 7-(Furan-2-yl)-3-hydroxyquinazoline-2,4(1H,3H)-dione]	72.6	–	56.2	4 ± 0.5	16.3 ± 0.6	–
Nc1ccccc1-c1ccc2c(=O)n(O)c(=O)[nH]c2c1 [21g, 7-(2-Aminophenyl)-3-hydroxyquinazoline-2,4(1H,3H)-dione]	64.7	–	24.7	8.8 ± 1.8	16.2 ± 0.7	–
N#Cc1ccc(NC(=O)Cn2c(=O)n(O)c(=O)c3ccccc32)cc1 [10n, N-(4-Cyanophenyl)-2-(3-hydroxy-2,4-dioxo-3,4-dihydroquinazolin-1(2H)-yl)acetamide]	58	66	–	< 10	10.6 ± 0.3	6.4 ± 0.3
O=c1[nH]c2ccc(-c3ccccc3)cc2c(=O)n1O [21a, 3-Hydroxy-6-phenylquinazoline-2,4(1H,3H)-dione]	65.4	–	35.6	4.3 ± 0.7	5.5 ± 1	–
O=c1[nH]c2cc(Br)ccc2c(=O)n1O [compound 19, 7-Bromo-3-hydroxyquinazoline-2,4(1H,3H)-dione]	41.1	72	23.5	19 ± 1.8	37.6 ± 2.6	–
O=c1[nH]c2cc(-c3ccc(F)cc3F)ccc2c(=O)n1O [21n, 7-(2,4-Difluorophenyl)-3-hydroxyquinazoline-2,4(1H,3H)-dione]	69.7	–	–	3.9 ± 0.3	11.2 ± 1.4	–
Cn1c(=O)n(O)c(=O)c2ccc(-c3ccc(F)cc3)cc21 [23c, 7-(4-Fluorophenyl)-3-hydroxy-1-methylquinazoline-2,4(1H,3H)-dione]	79.1	–	40.6	4.6 ± 0.5	8.1 ± 0.2	–
O=c1[nH]c2cc(-c3ccc(F)c(Cl)c3)ccc2c(=O)n1O [21l, 7-(3-Chloro-4-fluorophenyl)-3-hydroxyquinazoline-2,4(1H,3H)-dione]	49.7	–	25.9	7.9 ± 1	40.7 ± 3.9	–
COc1ccc(-c2ccc3c(=O)n(O)c(=O)n(C)c3c2)cc1 [23d, 3-Hydroxy-7-(4-methoxyphenyl)-1-methylquinazoline-2,4(1H,3H)-dione]	73.3	–	–	3.3 ± 0.2	9.3 ± 0.4	–
COc1ccc(-c2ccc3c(=O)n(O)c(=O)[nH]c3c2)cc1F [21o, 7-(3-Fluoro-4-methoxyphenyl)-3-hydroxyquinazoline-2,4(1H,3H)-dione]	71.3	–	–	3.9 ± 2.2	4.3 ± 0.4	–
O=C(Cn1c(=O)n(O)c(=O)c2ccc(-c3ccco3)cc21)Nc1ccccc1Cl [23j, N-(2-Chlorophenyl)-2-(7-(furan-2-yl)-3-hydroxy-2,4-dioxo-3,4-dihydroquinazolin-1(2H)-yl)acetamide]	47.8	80	–	5.2 ± 1.9	12.2 ± 3.3	–
COc1ccc(-c2ccc3[nH]c(=O)n(O)c(=O)c3c2)cc1 [21c, 3-Hydroxy-6-(4-methoxyphenyl)quinazoline-2,4(1H,3H)-dione]	48.2	–	11.1	7.2 ± 0.8	14.8 ± 5.3	–
